Assay results as given in ChEMBL document CHEMBL1129988, “4-substituted cubylcarbinylamines: a new class of mechanism-based monoamine oxidase B inactivators” (J Med Chem, 1997).

Assay: Partition ratio was determined

| Partition ratio | SMILES |
| --- | --- |
| 152 | NCC12C3C4C5C3C1C5C42 (stereo not drawn) |
| 536 | NCC12C3C4C1C1C2C3C41C1CC1 (stereo not drawn) |
| 277 | NCC12C3C4C1C1C2C3C41c1ccccc1 (stereo not drawn) |
